# Assay results as given in patent publication US10266526B2, “Substituted 1,2,3-triazoles as SMYD inhibitors for treating cancer” (EPIZYME, INC., priority 2014, dated 2019).
# Where a name gives a salt, the structure may show the parent alone.
# Biological target: SMYD3 (Homo sapiens (Human), UniProt Q9H7B4)
# Experiment: SMYD3 biochemical assay (SMYD3 enzyme assay on MEKK2 protein substrate, 3H-SAM scintillation proximity assay)
# Conditions: Table 1A; average of n = 1 to n = 50; read-out: SMYD3 Biochem IC50
# In short: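 Detection used scintillation proximity beads to capture ³H-methylated GST-MEKK2 after quench with 100 uM final cold SAM. The reaction was started by SAM/MEKK2 addition after a 30 min RT compound–enzyme preincubation. Enzyme was tag-free full-length human SMYD3 from E. coli, in buffer of 25 mM Tris-Cl pH 8.0, 1 mM TCEP, 0.005% BSG, 0.005% Tween 20.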
# Sequence of SMYD3 (Q9H7B4 whole entry): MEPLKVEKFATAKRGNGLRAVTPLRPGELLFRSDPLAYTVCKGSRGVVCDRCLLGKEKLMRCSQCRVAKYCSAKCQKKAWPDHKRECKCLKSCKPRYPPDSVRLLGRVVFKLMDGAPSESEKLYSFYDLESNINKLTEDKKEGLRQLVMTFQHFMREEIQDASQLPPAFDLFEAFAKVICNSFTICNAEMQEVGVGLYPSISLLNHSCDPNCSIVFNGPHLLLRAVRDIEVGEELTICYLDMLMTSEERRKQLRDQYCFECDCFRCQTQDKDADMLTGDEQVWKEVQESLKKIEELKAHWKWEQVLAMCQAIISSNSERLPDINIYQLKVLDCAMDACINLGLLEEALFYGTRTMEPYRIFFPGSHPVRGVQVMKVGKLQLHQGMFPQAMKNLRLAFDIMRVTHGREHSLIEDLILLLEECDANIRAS
row,Compound,IC50 [µM]
1,"C[C@@H]1C[C@@H](NC(=O)c2ccccc2)CCN1C(=O)C1CCC(N)CC1 (mixture of isomers) [compound 557, (±)-trans-N-(1-(4-aminocyclohexane-1-carbonyl)-2-methylpiperidin-4-yl)benzamide]",> 10
2,"NCCC(=O)N[C@H]1CC[C@H](NC(=O)c2cc(Cl)[nH]n2)CC1 [compound 528, N-((1r,4r)-4-(3-aminopropanamido)cyclohexyl)-5-chloro-1H-pyrazole-3-carboxamide]",> 50
3,"N[C@H]1CC[C@H](NC(=O)c2cc3c(cn2)NC(=O)C3)CC1 [compound 559, N-((1r,4r)-4-aminocyclohexyl)-2-oxo-2,3-dihydro-1H-pyrrolo[2,3-c]pyridine-5-carboxamide]",3.49
4,"NCCCC(=O)N1CCC(NC(=O)c2ncn[nH]2)CC1 [Cpd. No. 560, N-(1-(4-aminobutanoyl)piperidin-4-yl)-1H-1,2,4-triazole-5-carboxamide]",> 10
5,"Cc1cc2cc(C(=O)NC(C)C3CCN(C(=O)[C@H](C)N)CC3)ccc2[nH]1 (stereo partly drawn) [compound 538, N-(1-(1-(L-alanyl)piperidin-4-yl)ethyl)-2-methyl-1H-indole-5-carboxamide]",> 50
6,"CCc1cnc(C(=O)N[C@H]2CC[C@H](NC(=O)CCN)CC2)s1 [compound 553, N-((1r,4r)-4-(3-aminopropanamido)cyclohexyl)-5-ethylthiazole-2-carboxamide]",25.6

# Same assay, conditions: read-out: SMYD3 Biochem IC50
row,Compound,IC50 [µM]
1,"Cc1cnc(C(=O)NC(C)C2CCN(C(=O)[C@H](C)N)CC2)cn1 (stereo partly drawn) [compound 185, N-(1-(1-(L-alanyl)piperidin-4-yl)ethyl)-5-methylpyrazine-2-carboxamide]",> 100
2,"NCCC(=O)N[C@H]1CC[C@H](NC(=O)c2cnccn2)CC1 [compound 252, N-((1r,4r)-4-(3-aminopropanamido)cyclohexyl)pyrazine-2-carboxamide]",37.4
3,"NCCC(=O)N[C@H]1CC[C@H](NC(=O)c2cn3ccsc3n2)CC1 [compound 317, N-((1r,4r)-4-(3-aminopropanamido)cyclohexyl)imidazo[2,1-b]thiazole-6-carboxamide]",> 100
4,"CC(NC(=O)c1ccc2nccc(N)c2c1)C1CCN(C(=O)[C@H](C)N)CC1 (stereo partly drawn) [compound 212, N-(1-(1-(L-alanyl)piperidin-4-yl)ethyl)-4-aminoquinoline-6-carboxamide]",15.2
5,"Cc1n[nH]c(C)c1C(=O)N[C@H]1CC[C@H](N)CC1 [compound 182, N-((1r,4r)-4-aminocyclohexyl)-3,5-dimethyl-1H-pyrazole-4-carboxamide]",> 100
6,"N[C@H]1CC[C@H](NC(=O)c2ccc3c(c2)no[n+]3[O-])CC1 [compound 286, 5-(((1r,4r)-4-aminocyclohexyl)carbamoyl)benzo[c][1,2,5]oxadiazole 1-oxide]",> 100
7,"Cc1ncc(C(=O)N[C@H]2CC[C@H](N)CC2)cn1 [compound 320, N-((1r,4r)-4-aminocyclohexyl)-2-methylpyrimidine-5-carboxamide]",> 100
8,"CC(NC(=O)c1cnc2ccccc2n1)C1CCN(C(=O)[C@H](C)N)CC1 (stereo partly drawn) [compound 238, N-(1-(1-(L-alanyl)piperidin-4-yl)ethyl)quinoxaline-2-carboxamide]",> 100
9,"COc1cnc(C(=O)NC(C)C2CCN(C(=O)[C@H](C)N)CC2)cn1 (stereo partly drawn) [compound 302, N-(1-(1-(L-alanyl)piperidin-4-yl)ethyl)-5-methoxypyrazine-2-carboxamide]",> 100
10,"Cc1cnc(C(=O)N[C@H]2CC[C@H](NC(=O)CCN)CC2)cn1 [compound 215, N-((1r,4r)-4-(3-aminopropanamido)cyclohexyl)-5-methylpyrazine-2-carboxamide]",> 100

# Other lines, results leading:
row,IC50 [µM],Compound
1,> 100,"COc1cnc(C(=O)N[C@H]2CC[C@H](NC(=O)CCN)CC2)cn1 [compound 383, N-((1r,4r)-4-(3-aminopropanamido)cyclohexyl)-5-methoxypyrazine-2-carboxamide]"
2,> 100,"N[C@H]1CC[C@H](NC(=O)c2cccc3c2CC(=O)N3)CC1 [compound 400, N-((1r,4r)-4-aminocyclohexyl)-2-oxoindoline-4-carboxamide]"
3,> 100,"O=C1CC2CN(C(=O)CC3CCNCC3)CCC2N1 (stereo not drawn) [compound 461, 5-(2-(piperidin-4-yl)acetyl)octahydro-2H-pyrrolo[3,2-c]pyridin-2-one]"
4,51.1,"CC(NC(=O)Cc1cccc(C(F)(F)F)c1)C1CCN(C(=O)[C@H](C)N)CC1 (stereo partly drawn) [compound 476, N-(1-(1-(L-alanyl)piperidin-4-yl)ethyl)-2-(3-(trifluoromethyl)phenyl)acetamide]"
5,> 100,"COc1cnc(C(=O)N[C@H]2CC[C@H](N)CC2)cn1 [compound 384, N-((1r,4r)-4-aminocyclohexyl)-5-methoxypyrazine-2-carboxamide]"
6,5.02,"NCCC(=O)N[C@H]1CC[C@H](NC(=O)c2cc3cccc(O)c3cc2O)CC1 [compound 479, N-((1r,4r)-4-(3-aminopropanamido)cyclohexyl)-3,5-dihydroxy-2-naphthamide]"
7,> 50,"N[C@H]1CC[C@H](NC(=O)c2cncnc2O)CC1 [compound 493, N-((1r,4r)-4-aminocyclohexyl)-4-hydroxypyrimidine-5-carboxamide]"
8,> 100,"NCCC(=O)N[C@H]1CC[C@H](NC(=O)Cc2c[nH]c3cccnc23)CC1 [compound 407, N-((1r,4r)-4-(2-(1H-pyrrolo[3,2-b]pyridin-3-yl)acetamido)cyclohexyl)-3-aminopropanamide]"
9,> 100,"COc1cncc(C(=O)N[C@H]2CC[C@H](NC(=O)CCN)CC2)n1 [compound 355, N-((1r,4r)-4-(3-aminopropanamido)cyclohexyl)-6-methoxypyrazine-2-carboxamide]"
10,> 100,"Cc1ccc(C(=O)N[C@H]2CC[C@H](N)CC2)cn1 [compound 346, N-((1r,4r)-4-aminocyclohexyl)-6-methylnicotinamide]"
11,> 100,"N[C@H]1CC[C@H](NC(=O)c2nc3ccc(F)cc3s2)CC1 [compound 500, N-((1r,4r)-4-aminocyclohexyl)-6-fluorobenzo[d]thiazole-2-carboxamide]"
12,> 100,"Cc1cnccc1C(=O)N[C@H]1CC[C@H](N)CC1 [compound 380, N-((1r,4r)-4-aminocyclohexyl)-3-methylisonicotinamide]"
13,> 100,"Cn1ccnc1C(=O)N[C@H]1CC[C@H](NC(=O)CCN)CC1 [compound 412, N-((1r,4r)-4-(3-aminopropanamido)cyclohexyl)-1-methyl-1H-imidazole-2-carboxamide]"
14,> 100,"Cn1nc(C(C)(C)C)cc1C(=O)N[C@H]1CC[C@H](NC(=O)CCN)CC1 [compound 351, N-((1r,4r)-4-(3-aminopropanamido)cyclohexyl)-3-(tert-butyl)-1-methyl-1H-pyrazole-5-carboxamide]"
15,> 100,"Cc1cnc(C(=O)N[C@H]2CC[C@H](N)CC2)s1 [compound 398, N-((1r,4r)-4-aminocyclohexyl)-5-methylthiazole-2-carboxamide]"
16,27.4,"Cc1cnc(C(=O)N[C@H]2CC[C@H](NC(=O)CCN)CC2)s1 [compound 397, N-((1r,4r)-4-(3-aminopropanamido)cyclohexyl)-5-methylthiazole-2-carboxamide]"
17,> 100,"CC(NC(=O)c1ccc(N)nc1)C1CCN(C(=O)[C@H](C)N)CC1 (stereo partly drawn) [compound 387, N-(1-(1-(L-alanyl)piperidin-4-yl)ethyl)-6-aminonicotinamide]"
18,> 100,"N[C@H]1CC[C@H](NC(=O)c2ccc(O)cn2)CC1 [compound 423, N-((1r,4r)-4-aminocyclohexyl)-5-hydroxypicolinamide]"
19,> 100,"Cc1cc(C(=O)N[C@H]2CC[C@H](N)CC2)ccn1 [compound 394, N-((1r,4r)-4-aminocyclohexyl)-2-methylisonicotinamide]"
20,> 100,"NCCC(=O)N[C@H]1CC[C@H](NC(=O)Cc2cncnc2)CC1 [compound 364, 3-amino-N-((1r,4r)-4-(2-(pyrimidin-5-yl)acetamido)cyclohexyl)propanamide]"

# Same assay, conditions: read-out: SMYD3 Biochem IC50 (μM)*
row,Compound,IC50 [µM]
1,"Cc1n[nH]c(C)c1C(=O)NC(C)C1CCN(C(=O)[C@H](C)N)CC1 (stereo partly drawn) [compound 180, N-(1-(1-(L-alanyl)piperidin-4-yl)ethyl)-3,5-dimethyl-1H-pyrazole-4-carboxamide]",> 100
2,"C[C@H](N)C(=O)N1CC[C@H](CNC(=O)c2ccc3c(c2)CC(=O)N3)C1 [compound 135, N-(((R)-1-(L-alanyl)pyrrolidin-3-yl)methyl)-2-oxoindoline-5-carboxamide]",13.6
3,"CC(NC(=O)c1ccc2[nH]c(=O)oc2c1)C1CCN(C(=O)[C@H](C)N)CC1 (stereo partly drawn) [Cpd. No. 94, N-(1-(1-((S)-2-aminopropanoyl)piperidin-4-yl)ethyl)-2-oxo-2,3-dihydrobenzo[d]oxazole-6-carboxamide Hydrochloride]",3.94
4,"CCOC(=O)CCCC(=O)N[C@H]1CC[C@H](N)CC1 [compound 108, ethyl 5-(((1r,4r)-4-aminocyclohexyl)amino)-5-oxopentanoate]",92.2
5,"Nc1cc(C(=O)NC(c2ccccc2)C2CCNCC2)n[nH]1 (stereo not drawn) [compound 45, 5-amino-N-(phenyl(piperidin-4-yl)methyl)-1H-pyrazole-3-carboxamide]",137
6,"CC(CC(=O)NC(c1ccccc1)C1CCNCC1)C1CC1 (stereo not drawn) [compound 63, 3-cyclopropyl-N-(phenyl(piperidin-4-yl)methyl)butanamide]",131
7,"CCC1(C(=O)N[C@H]2CC[C@H](N)CC2)CCCN1 (stereo partly drawn) [compound 111, N-((1r,4r)-4-aminocyclohexyl)-2-ethylpyrrolidine-2-carboxamide]",150
8,"N[C@H]1CC[C@H](NC(=O)c2cccnc2)CC1 [compound 143, N-((1r,4r)-4-aminocyclohexyl)nicotinamide]",> 100
9,"O=C1Cc2cc(C(=O)NCC3CCNCC3)ccc2N1 [Cpd. No. 100, 2-oxo-N-(piperidin-4-ylmethyl)indoline-5-carboxamide Hydrochloride]",20
